Test results: patent US8575091B1, “Amylin analogues and pharmaceutical compositions thereof” (Novo Nordisk A/S, priority 2012, dated 2013)
Numbered stars: 1 amine (or outer) side, 2 acyl side, 3 side chain; on linkers, the order of the positions; unused ones are H or OH. Bridge positions count the residues as written; N and C are the ends. Side chains are listed from the residue outwards. Peptide text beside a SMILES is read from it. * marks the point of attachment. C20 diacid = O=C(O)CCCCCCCCCCCCCCCCCCC(=O)*; γGlu = O=C(O)[C@H](CCC(=O)[*:2])N[*:1]; AEEA = NCCOCCOCC(=O)O

Molecular target: T1, human amylin receptor (Homo sapiens, UniProt O60896+P30988)
T1 construct: expressed in transfected cells
T1 sequence (P30988 25-474): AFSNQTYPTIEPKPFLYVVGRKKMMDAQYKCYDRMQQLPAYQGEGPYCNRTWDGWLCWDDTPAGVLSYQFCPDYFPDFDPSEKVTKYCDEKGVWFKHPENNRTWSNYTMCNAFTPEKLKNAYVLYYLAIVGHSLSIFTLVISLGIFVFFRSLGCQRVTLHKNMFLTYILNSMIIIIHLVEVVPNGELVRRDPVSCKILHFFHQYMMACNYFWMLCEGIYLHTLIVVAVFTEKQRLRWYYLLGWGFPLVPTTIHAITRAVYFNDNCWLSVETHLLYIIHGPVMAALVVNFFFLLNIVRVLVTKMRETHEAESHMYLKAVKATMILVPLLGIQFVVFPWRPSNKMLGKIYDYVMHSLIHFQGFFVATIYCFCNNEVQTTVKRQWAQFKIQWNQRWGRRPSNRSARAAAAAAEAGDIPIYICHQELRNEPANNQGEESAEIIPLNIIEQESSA
T1 sequence (O60896 24-148 partner): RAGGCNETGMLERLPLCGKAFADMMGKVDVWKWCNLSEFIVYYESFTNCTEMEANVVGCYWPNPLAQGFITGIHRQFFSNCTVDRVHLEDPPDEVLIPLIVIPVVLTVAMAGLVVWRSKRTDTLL
Assay: Assay (V) binding to the human amylin receptor (SPA, 125I-rat amylin)
Protocol: The binding assay was performed using scintillation proximity assay (SPA) beads (RPNQ0001) from PerkinElmer and cell membranes from the Amylin 3(a)/CRE-luc cells (as described in Assay (II)) were used. Membranes were prepared in the following way; the cells were rinsed with PBS and incubated with Versene for approximately 5 min before harvesting. The cells were flushed with PBS and the cell-suspension was centrifuged for 5 min at 1000 rpm. […] The resulting pellet was resuspended in buffer 2 and protein concentration was measured (BCA protein Assay, Pierce). The homogenate was kept cold during the whole procedure. The membranes were kept at −80° C. until use. The assay was performed in a 384 well Optiplate (PerkinElmer) in a total volume of 40 ul. Membranes were mixed with SPA beads. Final concentration of membranes 35 ng/μL final and SPA beads was 0.05 mg/well. Test-compounds were dissolved in DMSO and further diluted in assay buffer (50 mM Hepes, pH 7.4, 1 mM CaCl2, 5 mM MgCl2, 0.1% OA and 0.02% Tween20). […] Samples were analyzed on TopCounter™ (Packard). The IC50 was calculated using (one site binding competition analysis) GraphPad Prism5 as a measure of receptor affinity.

[1] = Table 7b, human calcitonin receptor binding IC50 divided by human amylin receptor binding IC50
[2] = Table 7c, human calcitonin receptor binding IC50 divided by human amylin receptor binding IC50
[3] = human binding ratio, included for comparison

Ratio hCT/hAmylin binding [1]	Ratio hCT/hAmylin binding [2]	Ratio hCT/hAmylin binding [3]	IC50 (human amylin receptor membranes, SPA, read-out: hAmylin-R bind IC50)	Compound
63.0	63.0	63.0		CC[C@H](C)[C@H](NC(=O)[C@H](C)NC(=O)CNC(=O)[C@H](Cc1ccccc1)NC(=O)[C@H](CC(N)=O)NC(=O)[C@@H]1CCCN1C(=O)[C@H](CO)NC(=O)[C@H](CO)NC(=O)[C@H](Cc1c[nH]cn1)NC(=O)[C@H](CCCNC(=N)N)NC(=O)[C@H](CC(C)C)NC(=O)[C@H](Cc1ccccc1)NC(=O)[C@H](Cc1c[nH]cn1)NC(=O)[C@H](C)NC(=O)[C@H](CC(C)C)NC(=O)[C@H](CCCNC(=N)N)NC(=O)[C@H](CCC(N)=O)NC(=O)[C@@H](NC(=O)[C@H](C)NC(=O)[C@@H]1CSSC[C@H](NC(=O)[C@@H](N)CCCCNC(=O)CC[C@H](NC(=O)CCCCCCCCCCCCCCCCCCC(=O)O)C(=O)O)C(=O)N[C@@H](CC(N)=O)C(=O)N[C@@H]([C@@H](C)O)C(=O)N[C@@H](C)C(=O)N[C@@H]([C@@H](C)O)C(=O)N1)[C@@H](C)O)C(=O)N1CCC[C@H]1C(=O)N[C@@H](CO)C(=O)N[C@@H](CO)C(=O)N[C@H](C(=O)N1CCC[C@H]1C(=O)N[C@H](C(=O)NCC(=O)N[C@@H](CO)C(=O)N[C@@H](CC(N)=O)C(=O)N[C@H](C(=O)N[C@@H](Cc1ccc(O)cc1)C(N)=O)[C@@H](C)O)C(C)C)[C@@H](C)O [Example 62] (H-K([γGlu-C20 diacid])CNTATCATQRLAHFLRHSSPNFGAIPSSTPVGSNTY-NH2; disulfide 2-7; N-terminus assumed)
80.0	80.0	80.0		CC[C@H](C)[C@H](NC(=O)[C@H](C)NC(=O)CNC(=O)[C@H](Cc1ccccc1)NC(=O)[C@H](CC(N)=O)NC(=O)[C@@H]1CCCN1C(=O)[C@H](CO)NC(=O)[C@H](CO)NC(=O)[C@H](Cc1c[nH]cn1)NC(=O)[C@H](CCCNC(=N)N)NC(=O)[C@H](CC(C)C)NC(=O)[C@H](Cc1ccccc1)NC(=O)[C@H](CC(N)=O)NC(=O)[C@H](C)NC(=O)[C@H](CC(C)C)NC(=O)[C@H](CCCNC(=N)N)NC(=O)[C@H](CCC(N)=O)NC(=O)[C@@H](NC(=O)[C@H](C)NC(=O)[C@@H]1CSSC[C@H](NC(=O)[C@@H](N)CCCCNC(=O)COCCOCCNC(=O)CC[C@H](NC(=O)CCCCCCCCCCCCCCCCCCC(=O)O)C(=O)O)C(=O)N[C@@H](CC(N)=O)C(=O)N[C@@H]([C@@H](C)O)C(=O)N[C@@H](C)C(=O)N[C@@H]([C@@H](C)O)C(=O)N1)[C@@H](C)O)C(=O)N1CCC[C@H]1C(=O)N[C@@H](CO)C(=O)N[C@@H](CO)C(=O)N[C@H](C(=O)N[C@@H](CC(N)=O)C(=O)N[C@H](C(=O)NCC(=O)N[C@@H](Cc1c[nH]cn1)C(=O)N[C@@H](CC(N)=O)C(=O)N[C@H](C(=O)N[C@@H](Cc1ccc(O)cc1)C(N)=O)[C@@H](C)O)C(C)C)[C@@H](C)O [Example 76] (H-K([AEEA-γGlu-C20 diacid])CNTATCATQRLANFLRHSSPNFGAIPSSTNVGHNTY-NH2; disulfide 2-7 (inferred); N-terminus and C-terminus assumed)
			0.249 nM	CC[C@H](C)[C@H](NC(=O)[C@H](C)NC(=O)CNC(=O)[C@H](Cc1ccccc1)NC(=O)[C@H](CC(N)=O)NC(=O)[C@@H]1CCCN1C(=O)[C@H](CO)NC(=O)[C@H](CO)NC(=O)[C@H](Cc1c[nH]cn1)NC(=O)[C@H](CCCNC(=N)N)NC(=O)[C@H](CC(C)C)NC(=O)[C@H](Cc1ccccc1)NC(=O)[C@H](CC(N)=O)NC(=O)[C@H](C)NC(=O)[C@H](CC(C)C)NC(=O)[C@H](CCCNC(=N)N)NC(=O)[C@H](CCC(N)=O)NC(=O)[C@@H](NC(=O)[C@H](C)NC(=O)[C@@H]1CSSC[C@H](NC(=O)[C@@H](N)CCCCNC(=O)COCCOCCNC(=O)CC[C@H](NC(=O)CCCCCCCCCCCCCCCCCCC(=O)O)C(=O)O)C(=O)N[C@@H](CC(N)=O)C(=O)N[C@@H]([C@@H](C)O)C(=O)N[C@@H](C)C(=O)N[C@@H]([C@@H](C)O)C(=O)N1)[C@@H](C)O)C(=O)N1CCC[C@H]1C(=O)N[C@@H](CO)C(=O)N[C@@H](CO)C(=O)N[C@H](C(=O)N[C@@H](CC(N)=O)C(=O)N[C@H](C(=O)NCC(=O)N[C@@H](CO)C(=O)N[C@@H](CCCNC(=N)N)C(=O)N[C@H](C(=O)N[C@@H](Cc1ccc(O)cc1)C(N)=O)[C@@H](C)O)C(C)C)[C@@H](C)O [Example 38]
